The record followed here is BindingDB's records for doi:10.1016/j.bmcl.2008.03.027 (Scripps Florida, 2008).

A word on the EC50: it is the concentration needed to bring the measured effect to its halfway point. Low readings indicate greater potency, high ones weaker potency.

In this assay the target is Steroidogenic factor 1 (Homo sapiens, UniProt Q13285). Put plainly: Transactivation Cell-Based Assay. Here is the method: The assay was to monitor the SF-1 activation state via co-transfection of CHO-K1 cells with a plasmid encoding a Gal4-SF-1 chimerical transcription factor, pGal4DBD-SF-1-LBD, and a second plasmid driving luciferase expression under control of 5 multimerized Gal4 binding sites. The assay began by dispensing transfected cell suspension to each well (4,000 cells / well) of a white solid-bottom 1536-well plate. One hour after seeding, cells were treated with test compounds or DMSO alone (high control). The -NR cells (not co-transfected with nuclear receptor) were treated with DMSO (low control). After incubation, the luciferase assay was performed, and light emission was measured for 30 seconds with the ViewLux reader (PerkinElmer, Turku, Finland). Activity of each compound was calculated using the equation: Percent inhibition of compound=100 x (1-(test well-low control)/ (high control-low control)) EC50/IC50 is the concentration of test compound to exert 50% inhibition.
Steroidogenic factor 1, sequence (Q13285 whole entry, the tested form may be a part): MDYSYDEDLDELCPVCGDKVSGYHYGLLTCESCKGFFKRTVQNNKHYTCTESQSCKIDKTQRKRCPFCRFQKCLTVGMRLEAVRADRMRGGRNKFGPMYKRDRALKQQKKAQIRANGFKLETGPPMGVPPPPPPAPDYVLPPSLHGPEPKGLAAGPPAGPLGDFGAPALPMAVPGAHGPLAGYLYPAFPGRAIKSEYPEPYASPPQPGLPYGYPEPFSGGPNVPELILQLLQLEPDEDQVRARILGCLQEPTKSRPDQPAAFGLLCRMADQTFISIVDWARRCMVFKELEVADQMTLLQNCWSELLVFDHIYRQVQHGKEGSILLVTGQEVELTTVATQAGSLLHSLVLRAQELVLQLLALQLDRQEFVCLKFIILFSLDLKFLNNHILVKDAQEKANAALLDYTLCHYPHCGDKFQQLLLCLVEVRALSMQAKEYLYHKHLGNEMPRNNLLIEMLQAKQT

Turning to `CCOC(=O)C(C)Oc1cccc2c(=O)n(CC(=O)NCCc3ccccc3)ccc12` (stereo unspecified) [ethyl 2-[(1-oxo-2-{[(2-phenylethyl)carbamoyl]methyl}-1,2-dihydroisoquinolin-5-yl)oxy]propanoate], a half-maximal response (EC50) required 0.36 µM. `CCCCOc1cccc2c(=O)n(CC(=O)Nc3ccc4c(c3)OCCO4)ccc12` [2-(5-butoxy-1-oxo-1,2-dihydroisoquinolin-2-yl)-N-(2,3-dihydro-1,4-benzodioxin-6-yl)acetamide] had an EC50 of 13.7 µM. As for `CCOC(=O)C(C)Oc1cccc2c(=O)n(CC(=O)NCc3ccc4c(c3)OCO4)ccc12` (stereo unspecified) [ethyl 2-[(2-{[(2H-1,3-benzodioxol-5-ylmethyl)carbamoyl]methyl}-1-oxo-1,2-dihydroisoquinolin-5-yl)oxy]propanoate], the figure is 0.26 µM; as for `CCOC(=O)C(C)Oc1cccc2c(=O)n(CC(=O)Nc3ccc(CC)cc3)ccc12` (stereo unspecified) [ethyl 2-[(2-{[(4-ethylphenyl)carbamoyl]methyl}-1-oxo-1,2-dihydroisoquinolin-5-yl)oxy]propanoate], 0.11 µM. As for `CCOC(=O)C(C)Oc1cccc2c(=O)n(CC(=O)Nc3ccc(OCC)cc3)ccc12` (stereo unspecified) [ethyl 2-[(2-{[(4-ethoxyphenyl)carbamoyl]methyl}-1-oxo-1,2-dihydroisoquinolin-5-yl)oxy]propanoate], the figure is 0.19 µM. As for `CCOC(=O)C(C)Oc1cccc2c(=O)n(CC(=O)Nc3ccc(OC)cc3)ccc12` (stereo unspecified) [ethyl 2-[(2-{[(4-methoxyphenyl)carbamoyl]methyl}-1-oxo-1,2-dihydroisoquinolin-5-yl)oxy]propanoate], the figure is 0.2 µM; as for `CCOC(=O)C(C)Oc1cccc2c(=O)n(CC(=O)Nc3ccc(OC(F)(F)F)cc3)ccc12` (stereo unspecified) [ethyl 2-{[1-oxo-2-({[4-(trifluoromethoxy)phenyl]carbamoyl}methyl)-1,2-dihydroisoquinolin-5-yl]oxy}propanoate], 0.2 µM; as for `CCOC(=O)C(C)Oc1cccc2c(=O)n(CC(=O)Nc3ccc(C)cc3)ccc12` (stereo unspecified) [ethyl 2-[(2-{[(4-methylphenyl)carbamoyl]methyl}-1-oxo-1,2-dihydroisoquinolin-5-yl)oxy]propanoate], 0.34 µM. As to `CCCCNC(=O)Cn1ccc2c(OC(C)C(=O)OCC)cccc2c1=O` (stereo unspecified) [ethyl 2-({2-[(butylcarbamoyl)methyl]-1-oxo-1,2-dihydroisoquinolin-5-yl}oxy)propanoate], the concentration giving a half-maximal response (EC50) turned out to be 9.71 µM. As for `CCOC(=O)C(C)Oc1cccc2c(=O)n(CC(=O)Nc3ccc([N+](=O)[O-])cc3)ccc12` (stereo unspecified) [ethyl 2-[(2-{[(4-nitrophenyl)carbamoyl]methyl}-1-oxo-1,2-dihydroisoquinolin-5-yl)oxy]propanoate], the figure is 0.53 µM; as for `CCOC(=O)C(C)(C)Oc1cccc2c(=O)n(CC(=O)Nc3ccc4c(c3)OCCO4)ccc12` [ethyl 2-({2-[(2,3-dihydro-1,4-benzodioxin-6-ylcarbamoyl)methyl]-1-oxo-1,2-dihydroisoquinolin-5-yl}oxy)-2-methylpropanoate], 0.59 µM; as for `CCOC(=O)C(C)Oc1cccc2c(=O)n(CC(=O)NCc3ccco3)ccc12` (stereo unspecified) [ethyl 2-[(2-{[(furan-2-ylmethyl)carbamoyl]methyl}-1-oxo-1,2-dihydroisoquinolin-5-yl)oxy]propanoate], 4.71 µM. As for `CCCCC(C)Oc1cccc2c(=O)n(CC(=O)Nc3ccc4c(c3)OCCO4)ccc12` (stereo unspecified) [N-(2,3-dihydro-1,4-benzodioxin-6-yl)-2-[5-(hexan-2-yloxy)-1-oxo-1,2-dihydroisoquinolin-2-yl]acetamide], the figure is 0.88 µM; as for `CCOC(=O)C(C)Oc1cccc2c(=O)n(CCC(=O)Nc3ccc4c(c3)OCCO4)ccc12` (stereo unspecified) [ethyl 2-({2-[2-(2,3-dihydro-1,4-benzodioxin-6-ylcarbamoyl)ethyl]-1-oxo-1,2-dihydroisoquinolin-5-yl}oxy)propanoate], 8.46 µM. As for `CCC(C)Oc1cccc2c(=O)n(CC(=O)Nc3ccc4c(c3)OCCO4)ccc12` (stereo unspecified) [2-[5-(butan-2-yloxy)-1-oxo-1,2-dihydroisoquinolin-2-yl]-N-(2,3-dihydro-1,4-benzodioxin-6-yl)acetamide], the figure is 7.86 µM; as for `CCOC(=O)C(C)Oc1cccc2c(=O)n(CC(=O)NC3CCCCC3)ccc12` (stereo unspecified) [ethyl 2-({2-[(cyclohexylcarbamoyl)methyl]-1-oxo-1,2-dihydroisoquinolin-5-yl}oxy)propanoate], 1.77 µM; as for `CCOC(=O)C(C)Oc1cccc2c(=O)n(CC(=O)Nc3ccc4c(c3)OCCO4)ccc12` (stereo unspecified), 0.76 µM.

`CCOC(=O)C(C)Oc1cccc2c(=O)n(CC(=O)NCc3ccccc3)ccc12` (stereo unspecified) [ethyl 2-({2-[(benzylcarbamoyl)methyl]-1-oxo-1,2-dihydroisoquinolin-5-yl}oxy)propanoate] yielded a concentration for a half-maximal effect (EC50) of 1.06 µM. On to `CCCCc1ccc(NC(=O)Cn2ccc3c(OC(C)C(=O)OCC)cccc3c2=O)cc1` (stereo unspecified) [ethyl 2-[(2-{[(4-butylphenyl)carbamoyl]methyl}-1-oxo-1,2-dihydroisoquinolin-5-yl)oxy]propanoate], for which the concentration for a half-maximal effect (EC50) was 0.36 µM. As for `CCOC(=O)C(C)Oc1cccc2c(=O)n(CC(=O)NCc3ccc(F)cc3)ccc12` (stereo unspecified) [ethyl 2-{[2-({[(4-fluorophenyl)methyl]carbamoyl}methyl)-1-oxo-1,2-dihydroisoquinolin-5-yl]oxy}propanoate], the figure is 0.68 µM; as for `CCOC(=O)C(C)Oc1cccc2c(=O)n(CC(=O)N(C)c3ccc4c(c3)OCCO4)ccc12` (stereo unspecified) [ethyl 2-[(2-{[2,3-dihydro-1,4-benzodioxin-6-yl(methyl)carbamoyl]methyl}-1-oxo-1,2-dihydroisoquinolin-5-yl)oxy]propanoate], 3.57 µM.
